The text below walks through data of ChEMBL document CHEMBL1141145, “A chiral benzoquinolizine-2-carboxylic acid arginine salt active against vancomycin-resistant Staphylococcus aureus” (J Med Chem, 2005).

The test system of series [1] is Mus musculus. Kind of series: Protection of mice infected with MRSA-32 cell suspension after oral administration of compound. It is filed as functional. The settings on record: Mus musculus, MRSA-32, po; read-out: ED50.
Series [2] has as its system Staphylococcus aureus. In words: Minimum inhibitory concentration against methicillin susceptible Staphylococcus aureus after esterase action in rat serum. It is filed as functional.
For series [3], the system named is Staphylococcus aureus. In words: Minimum inhibitory concentration against methicillin susceptible Staphylococcus aureus before esterase action in rat serum. The series is classed as functional.
Series [4] is described as follows: physchem.
Series [5] in a line: physchem. The settings on record: octanol/water, pH 7.4.
The nature of series [6]: physchem. The source holds these as a separate data set.
A short description of series [7]: physchem. The note with it: octanol/water, pH 2.
Series [8] concerns the target DNA gyrase (Staphylococcus aureus) (UniProt P0A0K8+P20831).
For series [9], the target named is DNA topoisomerase 4 subunit A (Staphylococcus aureus) (UniProt P0C1U9).
For series [10], the system named is Mus musculus. In words: Efficacy against mice infected with MRSA-32 upon s.c. administration. The series is classed as functional. The note with it: MRSA-32, sc.
In series [11] the test system is Mus musculus. In words: Efficacy against mice infected with Staphylococcus aureus ATCC 25923 upon s.c. administration. It is filed as functional. The settings on record: sc.
In series [12] the test system is Mus musculus. Kind of series: Efficacy against mice infected with MRSA-33 upon s.c. administration. The series is classed as functional. The note with it: sc.
Series [13] has as its system Staphylococcus aureus. Kind of series: Minimum inhibitory concentration against Vancomycin intermediate Staphylococcus aureus MU 50. The series is classed as functional.
For series [14], the system named is Staphylococcus aureus. Kind of series: Minimum inhibitory concentration against vancomycin intermediate Staphylococcus aureus MU 3. The series is classed as functional.
Series [15] has as its system Staphylococcus aureus. Kind of series: Minimum inhibitory concentration against vancomycin-resistant Staphylococcus aureus (Hershey). It is filed as functional.
Series [16] has as its system Staphylococcus aureus. In words: microbe, parasite or virus in culture.
Series [17] relates to Staphylococcus aureus. In words: Minimum inhibitory concentration against vancomycin intermediate Staphylococcus aureus MU 50. The series is classed as functional.
Series [18] deals with Staphylococcus aureus. Kind of series: microbe, parasite or virus in culture. The source holds these as a separate data set.
In series [19] the test system is Staphylococcus aureus. Kind of series: microbe, parasite or virus in culture. This is another data set of the same source.
The subject of series [20] is Staphylococcus haemolyticus. In words: Minimum inhibitory concentration against Staphylococcus haemolyticus ATCC 29970. The series is classed as functional.
In another series the test system is Phocaeicola vulgatus. Kind of series: Minimum inhibitory concentration against Bacteroides vulgatus ATCC 29327. The series is classed as functional.
In series [21] the test system is Staphylococcus saprophyticus. In words: Minimum inhibitory concentration against Staphylococcus saprophyticus ATCC 15305. The series is classed as functional.
Another series relates to Streptococcus sanguinis. In words: Minimum inhibitory concentration against Streptococcus sanguis ATCC 10556. The series is classed as functional.
A further series deals with Klebsiella pneumoniae. Kind of series: Minimum inhibitory concentration against Klebsiella pneumoniae ATCC 10031. The series is classed as functional.
Another series deals with Streptococcus pyogenes. In words: Minimum inhibitory concentration against Streptococcus pyogenes ATCC 19615. It is filed as functional.
Another series relates to Enterococcus faecalis. In words: Minimum inhibitory concentration against Enterococcus faecalis ATCC 29212. It is filed as functional.
For series [22], the system named is Staphylococcus aureus. In words: Minimum inhibitory concentration against Staphylococcus aureus ATCC 25923. It is filed as functional.
For another series, the system named is Streptococcus agalactiae. In words: Minimum inhibitory concentration against Streptococcus agalactiae ATCC 13813. The series is classed as functional.
In series [23] the test system is Staphylococcus aureus. In words: Minimum inhibitory concentration against methicillin susceptible Staphylococcus aureus. The settings on record: Staphylococcus aureus; read-out: MIC. It is filed as functional.
Another series deals with Rattus norvegicus. Kind of series: Amount of drug at which at 14 days of daily administration produced no venous blockage or phlebitis in rats. The series is classed as functional.

Values after ≈ are worked out from the molar mass of the structure shown. Some results are limits rather than exact numbers.

Chain of DNA gyrase (Staphylococcus aureus) (P0A0K8 2-644 limits assumed): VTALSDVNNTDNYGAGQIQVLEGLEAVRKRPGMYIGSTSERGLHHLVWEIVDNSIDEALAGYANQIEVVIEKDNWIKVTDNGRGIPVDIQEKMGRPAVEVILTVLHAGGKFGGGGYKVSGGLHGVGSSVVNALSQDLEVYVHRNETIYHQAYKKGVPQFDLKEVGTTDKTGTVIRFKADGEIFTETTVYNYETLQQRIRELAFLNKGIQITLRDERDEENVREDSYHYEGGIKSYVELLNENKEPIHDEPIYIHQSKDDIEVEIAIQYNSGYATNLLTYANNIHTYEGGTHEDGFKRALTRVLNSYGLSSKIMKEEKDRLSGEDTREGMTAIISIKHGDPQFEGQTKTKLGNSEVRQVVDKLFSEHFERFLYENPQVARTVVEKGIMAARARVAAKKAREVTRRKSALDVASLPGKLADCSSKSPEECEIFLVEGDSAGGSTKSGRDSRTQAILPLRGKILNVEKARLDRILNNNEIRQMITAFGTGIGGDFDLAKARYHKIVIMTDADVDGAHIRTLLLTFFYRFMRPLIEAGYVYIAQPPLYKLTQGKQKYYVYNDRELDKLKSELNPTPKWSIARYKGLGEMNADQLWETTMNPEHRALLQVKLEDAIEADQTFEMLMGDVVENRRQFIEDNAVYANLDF
Chain of DNA gyrase (Staphylococcus aureus) (P20831 whole entry partner): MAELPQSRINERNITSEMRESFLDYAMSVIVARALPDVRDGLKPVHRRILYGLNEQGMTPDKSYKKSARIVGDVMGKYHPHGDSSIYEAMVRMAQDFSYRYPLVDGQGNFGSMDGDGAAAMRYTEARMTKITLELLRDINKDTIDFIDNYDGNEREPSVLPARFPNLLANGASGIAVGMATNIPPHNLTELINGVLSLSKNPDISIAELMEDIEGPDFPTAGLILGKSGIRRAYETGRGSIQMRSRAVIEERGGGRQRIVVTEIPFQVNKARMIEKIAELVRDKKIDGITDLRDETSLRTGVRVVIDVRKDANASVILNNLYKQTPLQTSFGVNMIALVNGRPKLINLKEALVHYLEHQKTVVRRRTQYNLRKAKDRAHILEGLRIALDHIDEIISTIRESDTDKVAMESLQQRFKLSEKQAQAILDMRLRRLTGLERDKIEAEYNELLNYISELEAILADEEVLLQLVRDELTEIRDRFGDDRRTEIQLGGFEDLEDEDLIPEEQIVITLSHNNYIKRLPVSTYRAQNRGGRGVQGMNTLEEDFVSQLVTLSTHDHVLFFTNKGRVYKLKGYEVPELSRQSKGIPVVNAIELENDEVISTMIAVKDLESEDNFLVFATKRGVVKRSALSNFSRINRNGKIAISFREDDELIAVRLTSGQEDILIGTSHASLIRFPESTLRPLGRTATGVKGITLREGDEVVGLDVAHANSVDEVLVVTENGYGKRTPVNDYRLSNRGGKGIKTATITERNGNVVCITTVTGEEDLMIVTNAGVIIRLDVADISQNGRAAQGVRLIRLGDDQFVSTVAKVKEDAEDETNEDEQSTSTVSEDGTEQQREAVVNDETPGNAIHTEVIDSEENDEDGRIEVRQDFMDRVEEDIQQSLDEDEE
Chain of DNA topoisomerase 4 subunit A (Staphylococcus aureus) (P0C1U9 whole entry): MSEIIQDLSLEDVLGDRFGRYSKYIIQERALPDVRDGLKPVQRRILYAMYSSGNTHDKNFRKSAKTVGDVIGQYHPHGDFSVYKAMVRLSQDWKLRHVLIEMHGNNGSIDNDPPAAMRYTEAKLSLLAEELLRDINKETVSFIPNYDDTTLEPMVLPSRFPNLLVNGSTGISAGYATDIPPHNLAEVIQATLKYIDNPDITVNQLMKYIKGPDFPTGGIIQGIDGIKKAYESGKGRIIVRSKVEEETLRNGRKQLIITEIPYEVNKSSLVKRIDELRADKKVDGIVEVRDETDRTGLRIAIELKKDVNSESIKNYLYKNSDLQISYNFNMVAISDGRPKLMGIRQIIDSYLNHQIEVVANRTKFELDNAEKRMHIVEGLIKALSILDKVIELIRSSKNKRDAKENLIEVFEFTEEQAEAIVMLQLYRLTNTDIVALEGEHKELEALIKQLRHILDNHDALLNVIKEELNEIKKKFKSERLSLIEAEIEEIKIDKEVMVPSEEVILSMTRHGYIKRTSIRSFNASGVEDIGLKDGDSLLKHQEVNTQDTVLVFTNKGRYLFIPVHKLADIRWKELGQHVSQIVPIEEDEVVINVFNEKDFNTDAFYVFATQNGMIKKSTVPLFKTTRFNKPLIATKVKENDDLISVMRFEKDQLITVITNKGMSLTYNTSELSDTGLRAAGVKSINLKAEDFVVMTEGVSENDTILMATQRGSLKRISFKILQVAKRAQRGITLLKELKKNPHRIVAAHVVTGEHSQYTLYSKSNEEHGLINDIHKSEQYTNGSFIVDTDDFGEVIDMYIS

Turning to `C[C@H]1CCc2c(N3CCC(O)CC3)c(F)cc3c(=O)c(C(=O)OCCN4CCCC4)cn1c23`, the ED50 (as a rule, the dose that gives a 50% effect, or the effect in half of the subjects) in the series with Mus musculus [1] was more than 150 mg/kg. Also, the MIC amounted to 0.06 µg/mL (≈ 0.131 µM) against Staphylococcus aureus [2] and 1 µg/mL (≈ 2.19 µM) against Staphylococcus aureus [3].

Consider `C[C@@H]1CN(c2c(F)c(N)c3c(=O)c(C(=O)O)cn(C4CC4)c3c2F)C[C@H](C)N1` [SPARFLOXACIN], for which the pKa (in general, the pH at which an ionisable group is half protonated) is 6.43 in “physchem [4]” and 9.38 in the series “physchem [6]”. Also, the logD (usually the decadic logarithm of the distribution of all forms, ionised or not, between an organic phase and buffer at a given pH) was -0.02 in the series “physchem [5]” and -0.86 in “physchem [7]”.

`CCn1cc(C(=O)O)c(=O)c2cc(F)c(N3CCNCC3)cc21` [NORFLOXACIN]: the pKa in the series “physchem [4]” was 6.54. For the same compound, the pH-dependent lipophilicity (logD) in the series “physchem [5]” was -1; in the series “physchem [7]”, -1.46.

With `C[C@H]1CCc2c(N3CCC(O)CC3)c(F)cc3c(=O)c(C(=O)O)cn1c23`, the results for the CC50 in series [8] and in series [9] were 5 µg/mL (≈ 13.9 µM) and 2.5 µg/mL (≈ 6.94 µM), respectively.

`CC(=O)NC[C@H]1CN(c2ccc(N3CCOCC3)c(F)c2)C(=O)O1` [LINEZOLID]: the ED50 in the series with Mus musculus [10] is 1.14 mg/kg; in the series on Mus musculus [11], 2.4 mg/kg; with Mus musculus [12] it was 3.1 mg/kg.

On to `CN[C@H](CC(C)C)C(=O)N[C@H]1C(=O)N[C@@H](CC(N)=O)C(=O)N[C@H]2C(=O)N[C@H]3C(=O)N[C@H](C(=O)N[C@H](C(=O)O)c4cc(O)cc(O)c4-c4cc3ccc4O)[C@H](O)c3ccc(c(Cl)c3)Oc3cc2cc(c3O[C@@H]2O[C@H](CO)[C@@H](O)[C@H](O)[C@H]2O[C@H]2C[C@](C)(N)[C@H](O)[C@H](C)O2)Oc2ccc(cc2Cl)[C@H]1O` [VANCOMYCIN], for which the MIC in the series on Staphylococcus aureus [13] was found to be 16 µg/mL (≈ 11 µM); against Staphylococcus aureus [14], 8 µg/mL (≈ 5.52 µM); against Staphylococcus aureus [15], 32 µg/mL (≈ 22.1 µM). In addition, the ED50 with Mus musculus [10] is more than 2.18 mg/kg; with Mus musculus [11], 6.11 mg/kg; in the series on Mus musculus [12] it was more than 3.7 mg/kg.

For `CCCCCCCCCC(=O)N[C@@H](Cc1c[nH]c2ccccc12)C(=O)N[C@H](CC(N)=O)C(=O)N[C@@H](CC(=O)O)C(=O)N[C@@H]1C(=O)NCC(=O)N[C@@H](CCCN)C(=O)N[C@@H](CC(=O)O)C(=O)N[C@H](C)C(=O)N[C@@H](CC(=O)O)C(=O)NCC(=O)N[C@H](CO)C(=O)N[C@@H]([C@H](C)CC(=O)O)C(=O)N[C@@H](CC(=O)c2ccccc2N)C(=O)O[C@@H]1C`, the MIC in the series on Staphylococcus aureus [16] came to 250 µg/mL (≈ 154 µM); against Staphylococcus aureus [17], 0.5 µg/mL (≈ 0.309 µM); against Staphylococcus aureus [14], 0.25 µg/mL (≈ 0.154 µM); with Staphylococcus aureus [18], 0.25 µg/mL (≈ 0.154 µM); in the series on Staphylococcus aureus [15], 0.5 µg/mL (≈ 0.309 µM); against Staphylococcus aureus [19], 0.25 µg/mL (≈ 0.154 µM).

With `CCn1cc(C(=O)O)c(=O)c2cc(F)c(N3CCN(C)CC3)cc21` [PEFLOXACIN], the pKa was determined as 6.15 in “physchem [4]” and 9.97 in “physchem [6]”.

For `COC(=O)COC(=O)c1cn2c3c(c(N4CCC(O)CC4)c(F)cc3c1=O)CC[C@@H]2C`, the median effective dose (ED50) with Mus musculus [1] was more than 150 mg/kg. For the same compound, the MIC was 4 µg/mL (≈ 9.25 µM) in the series with Staphylococcus aureus [2] and 8 µg/mL (≈ 18.5 µM) against Staphylococcus aureus [3].

Regarding `C[C@H]1CCc2c(N3CCC(O)CC3)c(F)cc3c(=O)c(C(=O)OCCN4CCOCC4)cn1c23`, the ED50 in the series with Mus musculus [1] was more than 100 mg/kg. Besides, the MIC with Staphylococcus aureus [2] amounted to 0.1 µg/mL (≈ 0.211 µM); in the series on Staphylococcus aureus [3], 0.25 µg/mL (≈ 0.528 µM).

As for `C[C@H]1CCc2c(N3CCC(O)CC3)c(F)cc3c(=O)c(C(=O)OC4CCN(C)CC4)cn1c23`, the ED50 in the series on Mus musculus [1] is more than 100 mg/kg. Also, the MIC against Staphylococcus aureus [2] is 1 µg/mL (≈ 2.19 µM); with Staphylococcus aureus [3], 2 µg/mL (≈ 4.37 µM).

Consider `C[C@H]1COc2c(N3CCN(C)CC3)c(F)cc3c(=O)c(C(=O)O)cn1c23.C[C@H]1COc2c(N3CCN(C)CC3)c(F)cc3c(=O)c(C(=O)O)cn1c23.O` [LEVOFLOXACIN], for which the MIC in [20] came out at 0.12 µg/mL; against Phocaeicola vulgatus, 1 µg/mL; in the series on Staphylococcus aureus [13], 8 µg/mL; in [21] it was 0.5 µg/mL; with Staphylococcus aureus [16], 16 µg/mL; against Streptococcus sanguinis it was 2 µg/mL. Besides, the MIC in the series on Klebsiella pneumoniae is 0.008 µg/mL; in the series on Streptococcus pyogenes, 1 µg/mL; against Enterococcus faecalis, 1 µg/mL; in the series on Staphylococcus aureus [14] it was 16 µg/mL; against Staphylococcus aureus [22], 1 µg/mL; against Staphylococcus aureus [18] it was 8 µg/mL. The MIC against Staphylococcus aureus [15] amounted to 32 µg/mL; with Streptococcus agalactiae, 1 µg/mL; against Staphylococcus aureus [19], 16 µg/mL. The ED50 was more than 100 mg/kg in the series with Mus musculus [10], 5.92 mg/kg in the series on Mus musculus [11] and more than 100 mg/kg with Mus musculus [12].

As to `CO[C@@H]1C(OC2CCN(c3c(F)cc4c(=O)c(C(=O)O)cn5c4c3CC[C@@H]5C)CC2)O[C@@H](CO)[C@@H](O)[C@@H]1O` (single isomer, unassigned), the ED50 in the series with Mus musculus [1] was more than 100 mg/kg. The MIC with Staphylococcus aureus [2] and in the series with Staphylococcus aureus [3] was 0.1 µg/mL (≈ 0.186 µM) throughout.

Regarding `C[C@H]1CCc2c(N3CCC(O)CC3)c(F)cc3c(=O)c(C(=O)[O-])cn1c23.[Na+]`, in the series on Staphylococcus aureus [23], the MIC was determined as 0.03 µg/mL. Moreover, the NOEL in the series on Rattus norvegicus is less than 250 mg/kg. The ED50 in the series on Mus musculus [1] worked out at 60 mg/kg.
